As usually defined, the IC50 is the concentration that inhibits the measured activity by half.

Structures are written as SMILES.

One series concerns the target T1, DPP-IV (Homo sapiens, UniProt P27487).
T1 construct: an extract of the human colon carcinoma cell line Caco-2 is used as the DPP IV source; endogenous in cells; host or cells: Caco-2 (human colon carcinoma), differentiated to induce DPP-IV expression; Nonidet-P40 solubilised extract
Briefly: DPP-IV assay with extract of Caco-2 cells as DPP IV source, AFC substrate, fluorescence. Format: biochemical. The settings on record: extract of human colon carcinoma cell line Caco-2; substrate 100 μM; 60 minutes at ambient temperature; read-out: DPP IV inhibition IC50. The method, then:
The cell extract was obtained from cells solubilised in a buffer (10 mM Tris HCl, 0.15 M NaCl, 0.04 t.i.u. aprotinin, 0.5% Nonidet-P40, pH 8.0) by centrifugation at 35,000 g for 30 minutes at 4° C. (to remove cell debris).
The DPP-IV assay was carried out as follows:
50 μl of substrate solution (AFC; AFC is amido-4-trifluoromethylcoumarin), final concentration 100 μM, were placed in black microtitre plates. 20 μl of assay buffer (final concentrations 50 mM Tris HCl pH 7.8, 50 mM NaCl, 1% DMSO) was pipetted in. The reaction was started by the addition of 30 μl of solubilised Caco-2 protein (final concentration 0.14 μg of protein per well). The test substances under investigation were typically added prediluted to 20 μl, while the volume of assay buffer was then reduced accordingly. The reaction was carried out at ambient temperature, the incubation period was 60 minutes. […] Dummy values (corresponding to 0% activity) were obtained in mixtures with no Caco-2 protein (volume replaced by assay buffer), control values (corresponding to 100% activity) were obtained in mixtures without any added substance.

The test system of a further series is rats. Briefly: Tolerability in rats after oral administration. Format: in vivo. The settings on record: oral administration of 10 mg/kg.

T1 sequence (P27487 whole entry): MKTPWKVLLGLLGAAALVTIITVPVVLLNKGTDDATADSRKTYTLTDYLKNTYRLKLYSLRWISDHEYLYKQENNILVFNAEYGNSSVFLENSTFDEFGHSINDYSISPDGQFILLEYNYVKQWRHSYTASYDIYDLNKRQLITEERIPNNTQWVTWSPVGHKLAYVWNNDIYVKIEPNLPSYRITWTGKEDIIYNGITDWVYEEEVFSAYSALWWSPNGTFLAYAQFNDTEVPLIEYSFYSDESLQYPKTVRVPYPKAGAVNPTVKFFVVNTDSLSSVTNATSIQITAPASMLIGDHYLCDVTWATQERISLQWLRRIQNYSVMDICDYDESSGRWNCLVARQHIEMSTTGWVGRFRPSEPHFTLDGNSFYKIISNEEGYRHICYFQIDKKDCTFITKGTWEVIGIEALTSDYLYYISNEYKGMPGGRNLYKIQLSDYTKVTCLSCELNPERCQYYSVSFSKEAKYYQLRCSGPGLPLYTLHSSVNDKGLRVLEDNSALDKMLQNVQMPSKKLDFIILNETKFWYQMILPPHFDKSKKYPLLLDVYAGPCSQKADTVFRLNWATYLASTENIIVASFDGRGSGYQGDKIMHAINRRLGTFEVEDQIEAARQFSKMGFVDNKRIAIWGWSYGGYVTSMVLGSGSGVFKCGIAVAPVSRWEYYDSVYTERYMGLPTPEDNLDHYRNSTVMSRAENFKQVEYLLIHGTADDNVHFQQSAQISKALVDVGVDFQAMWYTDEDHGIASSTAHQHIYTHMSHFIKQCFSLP

Consider `CC#CCn1c(N2CCCNCC2)nc2cnn(Cc3cc(C)c4nc(C)c(C)nc4c3)c(=O)c21` [1(2), 2-([1,4]diazepan-1-yl)-3-(2-butyn-1-yl)-5-[(2,3,8-trimethyl-quinoxalin-6-yl)methyl]-3,5-dihydro-imidazo[4,5-d]pyridazin-4-one], for which the IC50 at DPP-IV came out at 17 nM.
Still for that read-out and setting: to `CC#CCn1c(N2CCNCC2)nc2cnn(Cc3nc4c(C)cccc4o3)c(=O)c21` [1(9), 2-(piperazin-1-yl)-3-(2-butyn-1-yl)-5-[(4-methyl-benzoxazol-2-yl)methyl]-3,5-dihydro-imidazo[4,5-d]pyridazin-4-one] belongs 3 nM; to `CC#CCn1c(N2CCNCC2)nc2cnn(Cc3ccc4c(c3)nnn4C)c(=O)c21` [1(11), 2-(piperazin-1-yl)-3-(2-butyn-1-yl)-5-[(1-methyl-1H-benzotriazol-5-yl)methyl]-3,5-dihydro-imidazo[4,5-d]pyridazin-4-one], 2 nM; to `CC#CCn1c(N2CCCNCC2)nc2cnn(Cc3ccc4c(c3)nnn4C)c(=O)c21` [1(12), 2-([1,4]diazepan-1-yl)-3-(2-butyn-1-yl)-5-[(1-methyl-1H-benzotriazol-5-yl)methyl]-3,5-dihydro-imidazo[4,5-d]pyridazin-4-one], 4 nM.
Still for that read-out and setting: to `CC#CCn1c(N2CCCNCC2)nc2cnn(Cc3nc4c(C)cccc4o3)c(=O)c21` [1(13), 2-([1,4]diazepan-1-yl)-3-(2-butyn-1-yl)-5-[(4-methyl-benzoxazol-2-yl)methyl]-3,5-dihydro-imidazo[4,5-d]pyridazin-4-one] belongs 5 nM.
Consider `CC#CCn1c(N2CCNCC2)nc2cnn(Cc3nc(C)c4ccccc4n3)c(=O)c21` [Example 1, 2-(piperazin-1-yl)-3-(2-butyn-1-yl)-5-[(4-methyl-quinazolin-2-yl)methyl]-3,5-dihydro-imidazo[4,5-d]pyridazin-4-one], for which the toxic side effects result in the series on rats is reported as “no toxic side effects could be detected”.
Consider `CC#CCn1c(N2CCNCC2)nc2cnn(Cc3cc(C)c4nc(C)c(C)nc4c3)c(=O)c21` [Example 2, 2-(piperazin-1-yl)-3-(2-butyn-1-yl)-5-[(2,3,8-trimethyl-quinoxalin-6-yl)methyl]-3,5-dihydro-imidazo[4,5-d]pyridazin-4-one], for which the IC50 at DPP-IV was 14 nM.

The record behind these values is patent US7217711B2, “Piperazin-1-yl and 2-([1,4]diazepan-1-yl)-imidazo[4,5-d]-pyridazin-4-ones, the preparation thereof and their use as pharmaceutical compositions” (Boehringer Ingelheim International GmbH, priority 2003, dated 2007).
